Values after ≈ are worked out from the molar mass of the structure shown.
Tests used:
Assay in all cases: in vitro antibacterial evaluation, MIC by broth dilution
Format in all cases: cell-based
[1] = system: Enterococcus sp.; settings: broth dilution, 18 hours at 35° C.; for MIC Enterococcus faecalis (ATCC 29212): strain ATCC 29212; for MIC Enterococcus faecalis (GC 2242): strain GC 2242; for MIC Enterococcus faecium (GC 2243): strain GC 2243; for MIC Enterococcus faecalis (GC 2691): strain GC 2691; for MIC Enterococcus faecalis (GC 3059): strain GC 3059; for MIC Enterococcus faecalis (GC 4552): strain GC 4552; for MIC Enterococcus faecalis (GC 4553): strain GC 4553; for MIC Enterococcus faecalis (GC 4554): strain GC 4554; for MIC Enterococcus faecium (GC 4556): strain GC 4556; for MIC Enterococcus faecium (GC 4557): strain GC 4557; for MIC Enterococcus avium (GC 4558): strain GC 4558; for MIC Enterococcus faecalis (GC 6189): strain GC 6189
Summary of the method: (§1)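 Inoculum 5×10^5 CFU/mL; concentrations 64 to 0.06 μg/mL; MIC defined as lowest inhibitory level. Conducted by broth dilution under NCCLS guidelines.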

[2] = system: Escherichia coli
Summary of the method: as §1

[3] = system: Staphylococcus sp.; settings: broth dilution, 18 hours at 35° C.; for MIC Staphylococcus aureus (GC 1131): strain GC 1131
Summary of the method: as §1

[4] = system: Streptococcus sp.; settings: broth dilution, 18 hours at 35° C.; for MIC Streptococcus pneumoniae (ATCC 6301): strain ATCC 6301; for MIC Streptococcus pneumoniae (GC 1894): strain GC 1894; for MIC Streptococcus pyogenes (GC 4563): strain GC 4563; for MIC Streptococcus agalactiae (GC 4564): strain GC 4564; for MIC Streptococcus pneumoniae (GC 4565): strain GC 4565
Summary of the method: as §1

- MIC Enterococcus faecalis (ATCC 29212) ([1]; inoculum 5×10^5 CFU/mL): 8 mg/L (≈ 5.21 µM)
- MIC Enterococcus faecalis (GC 2242) ([1]; inoculum 5×10^5 CFU/mL): 8 mg/L (≈ 5.21 µM)
- MIC Enterococcus faecium (GC 2243) ([1]; inoculum 5×10^5 CFU/mL): 2 mg/L (≈ 1.3 µM)
- MIC Enterococcus faecalis (GC 2691) ([1]; inoculum 5×10^5 CFU/mL): 2 mg/L (≈ 1.3 µM)
- MIC Enterococcus faecalis (GC 3059) ([1]; inoculum 5×10^5 CFU/mL): 4 mg/L (≈ 2.6 µM)
- MIC Enterococcus faecalis (GC 4552) ([1]; inoculum 5×10^5 CFU/mL): 8 mg/L (≈ 5.21 µM)
- MIC Enterococcus faecalis (GC 4553) ([1]; inoculum 5×10^5 CFU/mL): 4 mg/L (≈ 2.6 µM)
- MIC Enterococcus faecalis (GC 4554) ([1]; inoculum 5×10^5 CFU/mL): 4 mg/L (≈ 2.6 µM)
- MIC Enterococcus faecium (GC 4556) ([1]; inoculum 5×10^5 CFU/mL): 8 mg/L (≈ 5.21 µM)
- MIC Enterococcus faecium (GC 4557) ([1]; inoculum 5×10^5 CFU/mL): 4 mg/L (≈ 2.6 µM)
- MIC Enterococcus avium (GC 4558) ([1]; inoculum 5×10^5 CFU/mL): 2 mg/L (≈ 1.3 µM)
- MIC Enterococcus faecalis (GC 6189) ([1]; inoculum 5×10^5 CFU/mL): 2 mg/L (≈ 1.3 µM)
- MIC Enterococcus faecalis (ATCC 29212) [1]: 8 mg/L (≈ 5.21 µM)
- MIC Enterococcus faecalis (GC 2242) [1]: 8 mg/L (≈ 5.21 µM)
- MIC Enterococcus faecium (GC 2243) [1]: 2 mg/L (≈ 1.3 µM)
- MIC Enterococcus faecalis (GC 2691) [1]: 2 mg/L (≈ 1.3 µM)
- MIC Enterococcus faecalis (GC 3059) [1]: 4 mg/L (≈ 2.6 µM)
- MIC Enterococcus faecalis (GC 4552) [1]: 8 mg/L (≈ 5.21 µM)
- MIC Enterococcus faecalis (GC 4553) [1]: 4 mg/L (≈ 2.6 µM)
- MIC Enterococcus faecalis (GC 4554) [1]: 4 mg/L (≈ 2.6 µM)
- MIC Enterococcus faecium (GC 4556) [1]: 8 mg/L (≈ 5.21 µM)
- MIC Enterococcus faecium (GC 4557) [1]: 4 mg/L (≈ 2.6 µM)
- MIC Enterococcus avium (GC 4558) [1]: 2 mg/L (≈ 1.3 µM)
- MIC Enterococcus faecalis (GC 6189) [1]: 2 mg/L (≈ 1.3 µM)
- MIC Escherichia coli (ATCC 25922) ([2]; strain ATCC 25922, 18 hours at 35° C.): >64 mg/L
- MIC Escherichia coli (GC 4559) ([2]; strain GC 4559, 18 hours at 35° C.): >64 mg/L
- MIC Escherichia coli (GC 4560) ([2]; strain GC 4560, 18 hours at 35° C.): 4 mg/L (≈ 2.6 µM)
- MIC Staphylococcus aureus (GC 1131) ([3]; inoculum 5×10^5 CFU/mL): 8 mg/L (≈ 5.21 µM)
- MIC Staphylococcus aureus (ATCC 29213) ([3]; strain ATCC 29213): 4 mg/L (≈ 2.6 µM)
- MIC Staphylococcus aureus (GC 1131) [3]: 8 mg/L (≈ 5.21 µM)
- MIC Staphylococcus aureus (GC 3051) ([3]; strain GC 3051): 2 mg/L (≈ 1.3 µM)
- MIC Staphylococcus aureus (GC 3053) ([3]; strain GC 3053): 2 mg/L (≈ 1.3 µM)
- MIC Staphylococcus aureus (GC 4541) ([3]; strain GC 4541): 8 mg/L (≈ 5.21 µM)
- MIC Staphylococcus aureus (GC 4542) ([3]; strain GC 4542): 4 mg/L (≈ 2.6 µM)
- MIC Staphylococcus aureus (GC 4544) ([3]; strain GC 4544): 4 mg/L (≈ 2.6 µM)
- MIC Staphylococcus aureus (GC 4545) ([3]; strain GC 4545): 4 mg/L (≈ 2.6 µM)
- MIC Staphylococcus aureus-SMITH (GC 4543) ([3]; strain GC 4543): 4 mg/L (≈ 2.6 µM)
- MIC Coagulase Negative Staphylococcus (GC 4547) ([3]; strain GC 4547): 4 mg/L (≈ 2.6 µM)
- MIC Coagulase Negative Staphylococcus (GC 4548) ([3]; strain GC 4548): 2 mg/L (≈ 1.3 µM)
- MIC Coagulase Negative Staphylococcus (GC 4549) ([3]; strain GC 4549): 4 mg/L (≈ 2.6 µM)
- MIC Coagulase Negative Staphylococcus (GC 4551) ([3]; strain GC 4551): 4 mg/L (≈ 2.6 µM)
- MIC Coagulase Negative Staphylococcus (GC 6257) ([3]; strain GC 6257): 2 mg/L (≈ 1.3 µM)
- MIC Streptococcus pneumoniae (ATCC 6301) ([4]; inoculum 5×10^5 CFU/mL): <0.06 mg/L
- MIC Streptococcus pneumoniae (GC 1894) ([4]; inoculum 5×10^5 CFU/mL): <0.06 mg/L
- MIC Streptococcus pyogenes (GC 4563) ([4]; inoculum 5×10^5 CFU/mL): <0.06 mg/L
- MIC Streptococcus agalactiae (GC 4564) ([4]; inoculum 5×10^5 CFU/mL): <0.06 mg/L
- MIC Streptococcus pneumoniae (GC 4565) ([4]; inoculum 5×10^5 CFU/mL): <0.06 mg/L
- MIC Streptococcus pneumoniae (ATCC 6301) [4]: <0.06 mg/L
- MIC Streptococcus pneumoniae (GC 1894) [4]: <0.06 mg/L
- MIC Streptococcus pyogenes (GC 4563) [4]: <0.06 mg/L
- MIC Streptococcus agalactiae (GC 4564) [4]: <0.06 mg/L
- MIC Streptococcus pneumoniae (GC 4565) [4]: <0.06 mg/L
SMILES: CC(C)=CCCC(C)=CCOc1ccc(C2OCC3OC(OC4C(CO)OC(Oc5ccc(CC6NC(=O)C(C(C)c7ccccc7)NC(=O)CNC(=O)C(CO)NC(=O)C(C(O)C7CNC(=N)N7C7OC(CO)C(O)C(O)C7O)NC(=O)C(C(O)C7CNC(=N)N7)NC6=O)cc5)C(O)C4O)C(O)C(O)C3O2)cc1 (centres unmarked) [Example 183]
- MIC Staphylococcus haemolyticus (GC 4546) ([3]; strain GC 4546): 8 mg/L (≈ 5.21 µM)

Source: patent US6914045B2, “Glycopeptide antibiotics” (Wyeth Holdings Corporation, priority 2001, dated 2005)
